In PubChem BioAssay (NCI):
“And” between values parts separate entries of the source, which are not always exact repeats. Identical values can stand only once.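 Exposure lasted 48 hours, with cells grown in 96-well plates and compounds tested at five concentrations. GI50: concentration for 50% inhibition of growth. TGI marks complete inhibition of growth.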

Tests used:
Experiment in all cases: NCI-60 cell line screen, 48 h
[1] = tested on: DLD-1 colon
[2] = tested on: DMS 114 small cell lung
[3] = tested on: KM20L2 colon
[4] = tested on: IGROV1 ovarian
[5] = tested on: SK-OV-3 ovarian
[6] = tested on: SK-MEL-5 melanoma
[7] = tested on: K-562 leukemia
[8] = tested on: SF-268 CNS
[9] = tested on: MALME-3M melanoma
[10] = tested on: LXFL 529 NSCLC
[11] = tested on: UACC-62 melanoma
[12] = tested on: HCT-15 colon
[13] = tested on: MDA-N

Structure (SMILES)	TGI [1] [µM]	TGI [2] [µM]	TGI [3] [µM]	TGI [4]	TGI [5] [µM]	TGI [6]	TGI [7]	TGI [8]	TGI [9] [µM]	TGI [10] [µM]	TGI [11]	TGI [12] [µM]	TGI [13] [µM]	GI50 [7]	GI50 [3] [µM]	GI50 [13]
COc1ccc(C(=O)O[C@H]2[C@@H]3C=CO[C@@H](OC4OC(CO)C(O)C(O)C4O)[C@@H]3[C@@]3(CO)O[C@@H]23)cc1O (stereo partly specified)	> 100	> 100	> 100	> 100 µM	> 100	> 100 µM	> 100 µM	> 100 µM	> 100	> 100	> 100 µM	–	–	–	–	–
CCOc1ccc2[nH]c3c(C)c4ccncc4c(C)c3c2c1	1.96	3.01	2.56	2.42 µM	16.4	2.86 µM	> 100 µM	2.71 µM	2.83	1.98	–	1.61	–	–	–	–
CCC1(N=[N+]=[N-])C(=O)c2ccccc2N(C)C1=O (stereo unspecified)	> 100	> 100	> 100	> 100 µM	> 100	> 100 µM	> 100 µM	> 100 µM	> 100	> 100	> 100 µM	> 100	–	–	–	–
Cc1ccc2c(c1)C(=O)c1nc(C)ccc1C2=O	–	–	–	66.5 µM	> 100	19.7 µM	> 100 µM	> 100 µM	24.7	–	67.3 µM	48.1	39.9	–	–	–
NC(=O)N/N=C(/CC1C(=O)Oc2ccccc21)c1ccccc1O (stereo unspecified)	–	–	–	> 100 µM	> 100	> 100 µM	> 100 µM	> 100 µM	> 100	–	63.6 µM	> 100	> 100	–	–	–
Cc1nc(C)c(N2CCN(S(=O)(=O)N(Cc3ccccc3)Cc3ccccc3)CC2)c(=O)[nH]1	–	–	–	> 100 µM	> 54.2	> 100 µM	> 100 µM	> 75 µM	> 100	–	> 100 µM	> 100	> 100	–	–	–
O=C(O)CCC(=O)c1ccc2c(c1)C(C(=O)O)CC2 (stereo unspecified)	–	–	–	> 100 µM	> 100	> 100 µM	> 100 µM	> 100 µM	> 100	–	> 100 µM	> 100	> 100	–	–	–
COc1ccc(C2OC(=O)c3ccc4ccccc4c32)c(C)c1 (stereo unspecified)	–	–	–	> 67.8 µM	60.1	17.6 µM	> 75.7 µM	> 100 µM	> 100	–	> 100 µM	> 60.5	4.28	–	–	–
c1ccc2c(c1)c1c(n2CCOCCN2CCCC2)CCCC1	–	–	–	56.4 µM	87.7	30.3 µM	31.5 µM	> 100 µM	31.3	–	33.7 µM	31.2	35.8	–	–	–
Cc1c2ccncc2cc2c1[nH]c1ccccc12	38.5	16.9	22.4	65.2 µM	26.1	11.2 µM	6.01 µM	32.3 µM	20.5	–	20.7 µM	28.1	–	–	–	–
Cc1ccccc1OC(C)C(=O)NN1C(=O)CSC1c1ccc(Cl)cc1 (stereo unspecified)	–	–	–	> 100 µM	> 92.5	> 100 µM	> 77.1 µM	> 67.4 µM	> 100	–	> 100 µM	> 100	> 100	–	–	–
NC1=C(NC(=O)Cc2ccccc2F)C(=O)c2ccccc2C1=O	52.9	> 100	> 100	> 100 µM	–	–	> 100 µM	> 100 µM	50.9	–	> 100 µM	> 100	–	–	–	–
CN(C(=O)Cc1ccccc1)n1cnn(CC(=O)OC(C)(C)C)c1=S	–	–	–	> 10 µM	> 10	> 10 µM	> 10 µM	> 10 µM	> 10	–	> 10 µM	> 10	> 10	–	–	–
O=C1c2ccccc2C(=O)c2cc(N=Nc3c(O)ccc4ccccc34)ccc21	–	–	–	> 100 µM	> 100	> 100 µM	> 100 µM	> 100 µM	> 100	–	> 100 µM	> 100	> 100	–	–	–
C=C(C(=O)O)[C@@H]1C[C@@H]2O[C@H]1[C@@H](O)[C@@H](C)CCCC(C)=CCC[C@@]2(C)O	–	–	–	> 100 µM	> 100	> 100 µM	> 100 µM	> 100 µM	> 100	–	> 100 µM	> 100	> 100	32.3 µM and 83.5 µM	–	–
[N-]=[N+]=NC(c1cn(C2CC(O)C(CO)O2)c(=O)[nH]c1=O)C(Br)Br (stereo unspecified)	> 100	> 100	> 100	> 100 µM	> 100	> 100 µM	> 100 µM	–	> 100	> 100	> 100 µM	> 100	–	–	–	–

Structure (SMILES)	TGI [1] [µM]	TGI [2] [µM]	TGI [3] [µM]	TGI [4]	TGI [5] [µM]	TGI [6]	TGI [7]	TGI [8]	TGI [9] [µM]	TGI [10] [µM]	TGI [11]	TGI [12] [µM]	TGI [13] [µM]	GI50 [7]	GI50 [3] [µM]	GI50 [13]
N#CN/C(N)=N/C/N=C(\N)NC#N	> 100	> 100	> 100	> 100 µM	> 100	> 100 µM	> 100 µM	> 100 µM	> 100	> 100	> 100 µM	50.2	–	–	–	–
c1cc2c(cc1NC1=NCCO1)OCO2	–	–	–	> 100 µM	> 100	> 100 µM	> 100 µM	> 100 µM	> 100	–	> 100 µM	> 100	> 100	–	–	–
CCOC(=O)c1[nH]c(-c2[nH]c(-c3[nH]c(-c4[nH]c(C(=O)OCC)c(C)c4C(=O)OCC)c(C(=O)OCC)c3C)c(C)c2C(=O)OCC)c(C(=O)OCC)c1C	–	–	–	> 100 µM	> 100	> 100 µM	> 100 µM	> 100 µM	> 100	–	> 100 µM	> 100	> 100	–	–	–
CCN(CC)CCCNc1ccc2nc(C)n3c4ccc(O)cc4c(=O)c1c23	16.2	21.5	17.1	9.79 µM	25.2	24.5 µM	37.2 µM	17.2 µM	22.8	19.3	23.5 µM	15.6	20.6	–	–	–
COc1ccc(C(c2c(O)c3ccccc3n(-c3ccccc3)c2=O)c2c(O)c3ccccc3n(-c3ccccc3)c2=O)cc1	> 100	> 100	> 100	–	–	> 100 µM	> 100 µM	> 100 µM	> 100	> 100	–	> 100	–	–	–	–
CN(Cc1cnc2nc(N)nc(N)c2n1)c1ccc(C(=O)N[C@@H](CCC(=O)O)C(=O)O)cc1	> 250	191	> 250	212 µM and > 250 µM	> 250	179 µM and > 250 µM	206 µM and > 250 µM	206 µM and > 250 µM	> 250	> 250	41.4 µM and > 250 µM	> 250	> 250	–	0.0025	0.0289 µM and 0.0122 µM
O=c1cc(CO)oc2c3c(cc(O)c12)OCC(COC1OC(CO)C(O)C(O)C1O)=CC3 (stereo unspecified)	> 100	> 100	> 100	> 100 µM	> 100	> 100 µM	> 100 µM	> 100 µM	–	> 100	> 100 µM	> 100	–	–	–	–
Nc1nc(Cl)c(N)c(NCC2(CO)CC2)n1	–	–	–	> 100 µM	> 100	> 100 µM	> 100 µM	> 100 µM	> 100	–	> 100 µM	> 100	> 100	–	–	–
CN(C(=O)C12C3C4C5C3C1(C(=O)C13C6C7C8C6C1C8C73)C5C42)C(C)(C)C (stereo unspecified)	> 34.7	> 37.6	> 50	> 50 µM	> 50	> 50 µM	> 47.3 µM	> 50 µM	> 50	> 50	> 50 µM	> 32.2	–	–	–	–
Cc1cc2/c(=C\c3ccc(N(C)C)cc3)c3ccccc3n2[n+]1C	–	–	–	6.76 µM	14.3	1.58 µM	21.4 µM	6.57 µM	2.98	–	2.95 µM	34.7	1.58	–	–	–
Cc1cnc2sn(-c3ccc([N+](=O)[O-])cc3)c(=O)c2c1	–	–	–	> 100 µM	81.4	> 100 µM	> 100 µM	> 100 µM	> 100	–	> 100 µM	> 100	> 100	–	–	–
C/C=C(/I)CBr	29.2	28.4	88.5	33.7 µM	64.7	29.4 µM	> 100 µM	74.5 µM	31.4	27.6	29.5 µM	51.2	–	–	–	–
COc1ccc(N=NC(C(=O)c2ccccc2)C(=O)c2ccccc2)cc1	96.6	54.6	64	> 100 µM	96	34 µM	> 100 µM	> 100 µM	97	> 100	56.1 µM	> 100	–	–	–	–
Cc1ccc(SC2C(=O)C3CC(OCc4ccccc4)C2(C)C3(C)C)cc1 (stereo unspecified)	–	–	–	> 100 µM	> 100	> 100 µM	> 100 µM	> 100 µM	> 100	–	> 100 µM	> 100	> 100	–	–	–
NC(=S)/N=C(/c1nc2ccc(Cl)cc2[nH]c1=O)C(O)c1ccccc1Cl (stereo unspecified)	> 100	> 100	> 100	> 100 µM	> 100	–	> 100 µM	> 100 µM	> 100	> 100	> 100 µM	> 100	–	–	–	–
[N-]=[N+]=NC1OC(=O)C(Cl)=C1N=P(c1ccccc1)(c1ccccc1)c1ccccc1 (stereo unspecified)	–	–	–	> 10 µM	> 10	> 10 µM	> 10 µM	> 10 µM	> 10	–	> 10 µM	> 10	> 10	–	–	–
